Measured values as given in ChEMBL document CHEMBL6092123, “Configuration of two cysteine residues in a ring within a stapled Bim peptide affects the secondary structure and apoptotic activity” (Bioorg Med Chem Lett, 2024).

Key:
[1] = Drug uptake in human HeLa cells assessed as red signals at 10 uM incubated for 3 hrs by fluorescence microscopy; assay type: ADME, cell-based
HeLa = experiment: Induction of apoptosis in human HeLa cells assessed as green signal at 10 uM relative to control; assay type: functional
[2] = Proteolytic stability assessed as proteinase K (unknown origin)-mediated drug degradation measured for 15 mins by Tricine-SDS-PAGE analysis; assay type: ADME; conditions: read-out: Drug degradation

Row | Molecule | Drug uptake [1] | Activity (HeLa) | metabolised at 0.25 h [2]
1 | CC[C@H](C)[C@@H]1NC(=O)[C@@H](NC(=O)[C@H](CCCNC(=N)N)NC(=O)[C@H](CC(C)C)NC(=O)[C@H](CCC(=O)O)NC(=O)[C@H](CCC(N)=O)NC(=O)[C@H](C)NC(=O)[C@@H](NC(=O)[C@H](Cc2c[nH]c3ccccc23)NC(=O)[C@@H](NC(=O)[C@H](CCC(=O)O)NC(=O)[C@H](CCCNC(=N)N)NC(=O)[C@H](CCCNC(=N)N)NC(=O)[C@H](CCCNC(=N)N)NC(=O)[C@H](CCC(N)=O)NC(=O)[C@H](CCCNC(=N)N)NC(=O)[C@H](CCCNC(=N)N)NC(=O)[C@H](CCCCN)NC(=O)[C@H](CCCCN)NC(=O)[C@@H](N)CCCNC(=N)N)[C@@H](C)CC)[C@@H](C)CC)CSCc2ccccc2CSC[C@@H](C(=O)N[C@@H](Cc2ccccc2)C(=O)N[C@@H](CC(N)=O)C(=O)N[C@@H](C)C(=O)N[C@@H](Cc2ccc(O)cc2)C(=O)N[C@@H](Cc2ccc(O)cc2)C(=O)N[C@@H](C)C(=O)N[C@@H](CCCNC(=N)N)C(=O)O)NC(=O)[C@H](CC(=O)O)NC(=O)CNC1=O | Active | 94% | 68%
2 | CC[C@H](C)[C@@H]1NC(=O)[C@@H](NC(=O)[C@H](CCCNC(=N)N)NC(=O)[C@H](CC(C)C)NC(=O)[C@H](CCC(=O)O)NC(=O)[C@H](CCC(N)=O)NC(=O)[C@H](C)NC(=O)[C@@H](NC(=O)[C@H](Cc2c[nH]c3ccccc23)NC(=O)[C@@H](NC(=O)[C@@H](N)CCC(=O)O)[C@@H](C)CC)[C@@H](C)CC)CSCc2ccccc2CSC[C@@H](C(=O)N[C@@H](Cc2ccccc2)C(=O)N[C@@H](CC(N)=O)C(=O)N[C@@H](C)C(=O)N[C@@H](Cc2ccc(O)cc2)C(=O)N[C@@H](Cc2ccc(O)cc2)C(=O)N[C@@H](C)C(=O)N[C@@H](CCCNC(=N)N)C(=O)O)NC(=O)[C@H](CC(=O)O)NC(=O)CNC1=O | Not_active | – | –
3 | CC[C@H](C)[C@H](NC(=O)[C@H](Cc1c[nH]c2ccccc12)NC(=O)[C@@H](NC(=O)[C@H](CCC(=O)O)NC(=O)[C@H](CCCNC(=N)N)NC(=O)[C@H](CCCNC(=N)N)NC(=O)[C@H](CCCNC(=N)N)NC(=O)[C@H](CCC(N)=O)NC(=O)[C@H](CCCNC(=N)N)NC(=O)[C@H](CCCNC(=N)N)NC(=O)[C@H](CCCCN)NC(=O)[C@H](CCCCN)NC(=O)[C@@H](N)CCCNC(=N)N)[C@@H](C)CC)C(=O)N[C@@H](C)C(=O)N[C@@H](CCC(N)=O)C(=O)N[C@@H](CCC(=O)O)C(=O)N[C@@H](CC(C)C)C(=O)N[C@@H](CCCNC(=N)N)C(=O)N[C@@H]1CSCc2ccccc2CSC[C@H](C(=O)N[C@@H](Cc2ccccc2)C(=O)N[C@@H](CC(N)=O)C(=O)N[C@@H](C)C(=O)N[C@@H](Cc2ccc(O)cc2)C(=O)N[C@@H](Cc2ccc(O)cc2)C(=O)N[C@@H](C)C(=O)N[C@@H](CCCNC(=N)N)C(=O)O)NC(=O)[C@H](CC(=O)O)NC(=O)CNC(=O)[C@H]([C@@H](C)CC)NC1=O | – | 9.3% | –
4 | CC[C@H](C)[C@H](NC(=O)[C@H](Cc1c[nH]c2ccccc12)NC(=O)[C@@H](NC(=O)[C@H](CCC(=O)O)NC(=O)[C@H](CCCNC(=N)N)NC(=O)[C@H](CCCNC(=N)N)NC(=O)[C@H](CCCNC(=N)N)NC(=O)[C@H](CCC(N)=O)NC(=O)[C@H](CCCNC(=N)N)NC(=O)[C@H](CCCNC(=N)N)NC(=O)[C@H](CCCCN)NC(=O)[C@H](CCCCN)NC(=O)[C@@H](N)CCCNC(=N)N)[C@@H](C)CC)C(=O)N[C@@H](C)C(=O)N[C@@H](CCC(N)=O)C(=O)N[C@@H](CCC(=O)O)C(=O)N[C@@H](CC(C)C)C(=O)N[C@@H](CCCNC(=N)N)C(=O)N[C@@H]1CSCc2ccccc2CSC[C@@H](C(=O)N[C@@H](Cc2ccccc2)C(=O)N[C@@H](CC(N)=O)C(=O)N[C@@H](C)C(=O)N[C@@H](Cc2ccc(O)cc2)C(=O)N[C@@H](Cc2ccc(O)cc2)C(=O)N[C@@H](C)C(=O)N[C@@H](CCCNC(=N)N)C(=O)O)NC(=O)[C@H](CC(=O)O)NC(=O)CNC(=O)[C@H]([C@@H](C)CC)NC1=O | – | 14% | –
5 | CC[C@H](C)[C@@H]1NC(=O)[C@@H](NC(=O)[C@H](CCCNC(=N)N)NC(=O)[C@H](CC(C)C)NC(=O)[C@H](CCC(=O)O)NC(=O)[C@H](CCC(N)=O)NC(=O)[C@H](C)NC(=O)[C@@H](NC(=O)[C@H](Cc2c[nH]c3ccccc23)NC(=O)[C@@H](NC(=O)[C@@H](N)CCC(=O)O)[C@@H](C)CC)[C@@H](C)CC)CSCc2ccccc2CSC[C@H](C(=O)N[C@@H](Cc2ccccc2)C(=O)N[C@@H](CC(N)=O)C(=O)N[C@@H](C)C(=O)N[C@@H](Cc2ccc(O)cc2)C(=O)N[C@@H](Cc2ccc(O)cc2)C(=O)N[C@@H](C)C(=O)N[C@@H](CCCNC(=N)N)C(=O)O)NC(=O)[C@H](CC(=O)O)NC(=O)CNC1=O | – | 52% | –
6 | H-RKKRRQRRREIWIAQELRRIGDEFNAYYAR-OH | Active | 37% | 95%
